The source made the active and inactive calls. The calls are words filed in the database; no cut-off is given here.
Assays:
Trypanosoma cruzi [1] = assay: Antitrypanosomal activity against Trypanosoma cruzi MHOM/Pe/2011/Arequipa(DTU V) epimastigote form assessed as disruption of succinic acid level at IC25 concentration incubated for 72 hrs by NMR spectrometric analysis; assay type: functional, organism-based
Trypanosoma cruzi [2] = assay: Antitrypanosomal activity against Trypanosoma cruzi MHOM/Pe/2011/Arequipa(DTU V) amastigote form infected in BALB/c mouse assessed as reduction in parasitaemia at 20 mg/kg, po for 5 days and measured after 55 days post infection; assay type: functional, organism-based; details: time 5.0 day
[3] = Selectivity index, ratio of IC50 for cytotoxicity against African green monkey Vero cells to IC50 for antitrypanosomal activity against Trypanosoma cruzi TINF/CH/1956/Tulahuen (DTU VI) epimastigote form; assay type: toxicity, cell-based; details: read-out: Ratio IC50
Trypanosoma cruzi [4] = assay: Inhibition of nucleic acid level in Trypanosoma cruzi MHOM/Pe/2011/Arequipa(DTU V) epimastigote form at IC25 concentration after 72 hrs by Rho (FITC-A) staining based flow cytometric analysis; assay type: functional
[5] = Toxicity in BALB/c mouse infected with Trypanosomal Trypanosoma cruzi MHOM/Pe/2011/Arequipa(DTU V) assessed as effect on urea level at 20 mg/kg, po administered for 5 days starting at 9 days post infection and measured after 2 days post treatment; assay type: organism-based; details: in vivo, 120 h, time 5 day
[6] = Toxicity in BALB/c mouse infected with Trypanosomal Trypanosoma cruzi MHOM/Pe/2011/Arequipa(DTU V) assessed as effect on urea level at 20 mg/kg, po administered for 5 days starting at 100 days post infection and measured after 2 days post treatment; assay type: organism-based; details: in vivo, 120 h, time 5 day
[7] = biological target: Superoxide dismutase [Cu-Zn] (Homo sapiens, UniProt P00441); assay: Inhibition of human erythrocytes CuZn-SOD by UV-VIS spectrophotometric method; parameters: species or system Erythrocyte
Chain of Superoxide dismutase [Cu-Zn] (P00441 whole entry): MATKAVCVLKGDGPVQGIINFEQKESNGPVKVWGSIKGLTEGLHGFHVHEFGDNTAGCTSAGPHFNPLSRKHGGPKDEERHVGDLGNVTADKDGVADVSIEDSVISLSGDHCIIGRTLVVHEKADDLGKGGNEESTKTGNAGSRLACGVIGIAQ

[8] = Selectivity index, ratio of IC50 for cytotoxicity against African green monkey Vero cells to IC50 for antitrypanosomal activity against Trypanosoma cruzi TINF/CH/1956/Tulahuen (DTU VI) blood stream trypomastigote form; assay type: toxicity, cell-based; details: read-out: Ratio IC50
Trypanosoma cruzi [9] = assay: Antitrypanosomal activity against Trypanosoma cruzi MHOM/Pe/2011/Arequipa(DTU V) amastigote form infected in BALB/c mouse assessed as parasite free organ tissue ratio at 20 mg/kg, po administered for 5 days starting at 9 days post infection and measured up to 145 days post infection by PCR analysis relative to control; assay type: functional; details: time 5 day
[10] = Toxicity in BALB/c mouse infected with Trypanosomal Trypanosoma cruzi MHOM/Pe/2011/Arequipa(DTU V) assessed as effect on […] level at 20 mg/kg, po administered for 5 days starting at 100 days post infection and measured after 2 days post treatment; assay type: organism-based; details: in vivo, 120 h, time 5 day
[11] = Toxicity in BALB/c mouse infected with Trypanosomal Trypanosoma cruzi MHOM/Pe/2011/Arequipa(DTU V) assessed as effect on CK-MB level at 20 mg/kg, po administered for 5 days starting at 100 days post infection and measured after 2 days post treatment; assay type: organism-based; details: in vivo, 120 h, time 5 day
Vero = assay: Cytotoxicity against African green monkey Vero cells assessed as reduction in cell viability after 48 hrs by resazurin dye based assay; details: Chlorocebus sabaeus
Trypanosoma cruzi [12] = assay: Antitrypanosomal activity against Trypanosoma cruzi MHOM/Pe/2011/Arequipa(DTU V) amastigote form infected in Vero cells assessed as parasite growth inhibition at 50 uM incubated for 72 hrs by Giemsa-staining based assay relative to control; assay type: functional
[13] = Toxicity in BALB/c mouse infected with Trypanosomal Trypanosoma cruzi MHOM/Pe/2011/Arequipa(DTU V) assessed as effect on ALP level at 20 mg/kg, po administered for 5 days starting at 100 days post infection and measured after 2 days post treatment; assay type: organism-based; details: in vivo, 120 h, time 5 day
[14] = Toxicity in BALB/c mouse infected with Trypanosomal Trypanosoma cruzi MHOM/Pe/2011/Arequipa(DTU V) assessed as reduction in survival at 20 mg/kg, po administered for 5 days starting at 100 days post infection and measured up to 145 days post infection; assay type: organism-based; details: in vivo, 120 h, time 5 day
[15] = Toxicity in BALB/c mouse infected with Trypanosomal Trypanosoma cruzi MHOM/Pe/2011/Arequipa(DTU V) assessed as effect on CK-MB level at 20 mg/kg, po administered for 5 days starting at 9 days post infection and measured after 2 days post treatment; assay type: organism-based; details: in vivo, 120 h, time 5 day
[16] = Toxicity in BALB/c mouse infected with Trypanosomal Trypanosoma cruzi MHOM/Pe/2011/Arequipa(DTU V) assessed as reduction in weight at 20 mg/kg, po administered for 5 days starting at 100 days post infection and measured up to 145 days post infection; assay type: organism-based; details: in vivo, 120 h, time 5 day
Trypanosoma cruzi [17] = assay: Antitrypanosomal activity against Trypanosoma cruzi TINF/CH/1956/Tulahuen (DTU VI) blood stream trypomastigote form assessed as parasite growth inhibition incubated for 24 hrs by resazurin dye based assay; assay type: functional, organism-based
Trypanosoma cruzi [18] = assay: Antitrypanosomal activity against Trypanosoma cruzi MHOM/Pe/2011/Arequipa(DTU V) epimastigote form assessed as disruption of acetate level at IC25 concentration incubated for 72 hrs by NMR spectrometric analysis; assay type: functional, organism-based
Trypanosoma cruzi [19] = assay: Antitrypanosomal activity against Trypanosoma cruzi MHOM/Pe/2011/Arequipa(DTU V) epimastigote form assessed as disruption of glycerol level at IC25 concentration incubated for 72 hrs by NMR spectrometric analysis; assay type: functional, organism-based
[20] = Toxicity in BALB/c mouse infected with Trypanosomal Trypanosoma cruzi MHOM/Pe/2011/Arequipa(DTU V) assessed as effect on total bilirubin level at 20 mg/kg, po administered for 5 days starting at 100 days post infection and measured after 2 days post treatment; assay type: organism-based; details: in vivo, 120 h, time 5 day
[21] = Selectivity index, ratio of IC50 for cytotoxicity against African green monkey Vero cells to IC50 for antitrypanosomal activity against Trypanosoma cruzi IRHOD/CO/2008/SN3 (DTU I) amastigote form infected in Vero cells; assay type: toxicity, cell-based; details: read-out: Ratio IC50
Trypanosoma cruzi [22] = assay: Antitrypanosomal activity against Trypanosoma cruzi TINF/CH/1956/Tulahuen (DTU VI) amastigote form infected in Vero cells assessed as parasite growth inhibition incubated for 72 hrs by Giemsa-staining based assay; assay type: functional, organism-based
[23] = Selectivity index, ratio of IC50 for cytotoxicity against African green monkey Vero cells to IC50 for antitrypanosomal activity against Trypanosoma cruzi TINF/CH/1956/Tulahuen (DTU VI) amastigote form infected in Vero cells; assay type: toxicity, cell-based; details: read-out: Ratio IC50
Trypanosoma cruzi [24] = assay: Antitrypanosomal activity against Trypanosoma cruzi MHOM/Pe/2011/Arequipa(DTU V) amastigote form infected in Vero cells assessed as parasite growth inhibition incubated for 72 hrs by Giemsa-staining based assay; assay type: functional, organism-based
[25] = Selectivity index, ratio of IC50 for cytotoxicity against African green monkey Vero cells to IC50 for antitrypanosomal activity against Trypanosoma cruzi MHOM/Pe/2011/Arequipa(DTU V) amastigote form infected in Vero cells; assay type: toxicity, cell-based; details: read-out: Ratio IC50
Trypanosoma cruzi [26] = assay: Antitrypanosomal activity against Trypanosoma cruzi MHOM/Pe/2011/Arequipa(DTU V) epimastigote form assessed as parasite growth inhibition incubated for 48 hrs by resazurin dye based assay; assay type: functional, organism-based
[27] = Inhibition of Trypanosoma cruzi MHOM/Pe/2011/Arequipa(DTU V) epimastigote form Fe-SOD by UV-VIS spectrophotometric method
[28] = Toxicity in BALB/c mouse infected with Trypanosomal Trypanosoma cruzi MHOM/Pe/2011/Arequipa(DTU V) assessed as effect on uric acid level at 20 mg/kg, po administered for 5 days starting at 100 days post infection and measured after 2 days post treatment; assay type: organism-based; details: in vivo, 120 h, time 5 day
Trypanosoma cruzi [29] = assay: Antitrypanosomal activity against Trypanosoma cruzi MHOM/Pe/2011/Arequipa(DTU V) epimastigote form assessed as disruption of ethanol end product level at IC25 concentration incubated for 72 hrs by NMR spectrometric analysis; assay type: functional, organism-based

SMILES: COC(=O)[C@]1(C)CCC[C@]2(C)C3=C(C=C[C@@H]12)C(=O)C(C(C)C)=CC3=O
- Activity (Trypanosoma cruzi [1]): Active
- Activity (Trypanosoma cruzi [2]): Active
- selectivity ratio [3]: > 15
- inhibition (Trypanosoma cruzi [4]): 50.4%
- Activity [5]: Non-Toxic
- Activity [6]: Non-Toxic
- IC50 [7]: > 100 µM
- selectivity ratio [8]: > 40
- Activity (Trypanosoma cruzi [9]): 57.1%
- Activity [10]: Non-Toxic
- Activity [11]: Non-Toxic
- IC50 (Vero): 72.2 µM
- inhibition at 50 µM (Trypanosoma cruzi [12]): 100%
- Activity [13]: Non-Toxic
- Activity [14]: Non-Toxic
- Activity [15]: Non-Toxic
- Activity [16]: Non-Toxic
- IC50 (Trypanosoma cruzi [17]): 1.6 µM
- Activity (Trypanosoma cruzi [18]): inactive
- Activity (Trypanosoma cruzi [19]): Active
- Activity [20]: Non-Toxic
- selectivity ratio [21]: > 40
- IC50 (Trypanosoma cruzi [22]): 7.1 µM
- selectivity ratio [23]: > 40
- IC50 (Trypanosoma cruzi [24]): 4.8 µM
- selectivity ratio [25]: > 40
- IC50 (Trypanosoma cruzi [26]): 1.4 µM
- IC50 [27]: 6.5 µM
- Activity [28]: Non-Toxic
- Activity (Trypanosoma cruzi [29]): Active

SMILES: CC(C)c1cc(C=O)c([C@@]2(C)CCCC(C)(C)C2=O)cc1O
- Activity (Trypanosoma cruzi [1]): Active
- Activity (Trypanosoma cruzi [2]): Active
- selectivity ratio [3]: > 15
- inhibition (Trypanosoma cruzi [4]): 36.4%
- Activity [5]: Non-Toxic
- Activity [6]: Non-Toxic
- IC50 [7]: > 100 µM
- selectivity ratio [8]: > 40
- Activity (Trypanosoma cruzi [9]): 28.5%
- Activity [10]: Non-Toxic
- Activity [11]: Non-Toxic
- IC50 (Vero): 624 µM
- inhibition at 50 µM (Trypanosoma cruzi [12]): 100%
- Activity [13]: Non-Toxic
- Activity [14]: Non-Toxic
- Activity [15]: Non-Toxic
- Activity [16]: Non-Toxic
- IC50 (Trypanosoma cruzi [17]): 9.3 µM
- Activity (Trypanosoma cruzi [18]): inactive
- Activity (Trypanosoma cruzi [19]): Active
- Activity [20]: Non-Toxic
- selectivity ratio [21]: > 40
- IC50 (Trypanosoma cruzi [22]): 8.8 µM
- selectivity ratio [23]: > 40
- IC50 (Trypanosoma cruzi [24]): 9.2 µM
- selectivity ratio [25]: > 40
- IC50 (Trypanosoma cruzi [26]): 18.5 µM
- IC50 [27]: > 100 µM
- Activity [28]: Non-Toxic
- Activity (Trypanosoma cruzi [29]): Active
